Measured values: patent publication US9861706B2, “GLP-1 receptor agonist peptide gastrin conjugates” (priority 2011, dated 2018)
Where two headings read alike, the source gives them in different places. Square brackets hold non-standard residues; d marks the D form. Ends that are not written are not given here. AEEA = NCCOCCOCC(=O)O

T1: human CCK-B receptor (human, UniProt P32239 1-447)
T1 sequence (looked up): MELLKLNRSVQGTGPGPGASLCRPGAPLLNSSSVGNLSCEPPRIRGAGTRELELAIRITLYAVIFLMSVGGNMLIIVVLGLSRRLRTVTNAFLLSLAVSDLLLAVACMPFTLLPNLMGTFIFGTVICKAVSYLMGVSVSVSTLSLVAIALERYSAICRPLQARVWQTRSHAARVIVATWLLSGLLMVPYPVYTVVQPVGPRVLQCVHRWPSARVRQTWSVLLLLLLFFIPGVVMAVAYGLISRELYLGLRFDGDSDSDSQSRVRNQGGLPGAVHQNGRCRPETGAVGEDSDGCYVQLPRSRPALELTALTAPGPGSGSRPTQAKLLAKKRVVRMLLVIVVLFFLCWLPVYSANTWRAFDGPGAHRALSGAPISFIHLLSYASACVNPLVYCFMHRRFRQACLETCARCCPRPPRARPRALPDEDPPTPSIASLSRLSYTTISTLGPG

B1: Compound 40 (peptide)
peptide: HGEGTFTSELSKYLEEEAVRLFIEC(PEG20K)LK[AEEA][AEEA]YGWLDF-NH2
modifications: not fully specified
B2: Compound 38 (peptide)
peptide: HGEGTFTSDLSKQLEEEAVRLFIECLKNXXYGWLDF
modifications: not fully specified; C(PEG5K) at position 25; 8Ado at positions 29 and 30; C-terminal amide (-NH2)
B3: Compound 22 (peptide)
peptide: HGEGTFTSELSKYLEEEAVRLFIEWLKNYGWLDF-NH2

How the values were obtained:
[1] = Pharmacokinetics in mice after single subcutaneous dose; assay type: in vivo, C57BI L/6J mice; details: C57BL/6J, mouse, sc
Procedure: At each time point, samples from two mice were taken. […] Plasma samples were analyzed after solid phase extraction (SPE) by liquid chromatography mass spectrometry (LC-MS/MS).

db/db mice = experiment: Three weeks in vivo db/db mouse study
Procedure: Treatment Db/db mice were stratified to various treatment groups according to HbA1c levels. Mice were treated once daily with subcutaneous (SC) injections for a total of 21 days. Injection volume was 5 ml/kg. During the study body weights (BW) were recorded daily and used to administer the body weight-corrected doses of peptide. OGTT On day 16, an oral glucose tolerance test was performed in the animals. Blood glucose was measured before glucose (at t=0, baseline) and after glucose administration up to 2 hrs. Termination At termination the blood glucose levels were measured, and blood samples were analyzed for HbA1c levels. Measurements Whole blood glucose concentration (mM) was determined by the immobilized glucose oxidase method (Elite Autoanalyser, Bayer, Denmark). Blood samples were analyzed for HbA1c using the Cobas c111 analyzer (Roche Diagnostics, Mannheim, Germany).

human CCK-B receptor = target: T1, human CCK-B receptor; experiment: cell-based or functional assay
human GLP-1 receptor = human GLP-1 receptor (human, UniProt P43220 24-463); experiment: cell-based or functional assay
[2] = SC 100 nmol/kg once daily, 21 days treatment

Sequence of human GLP-1 receptor (P43220 24-463): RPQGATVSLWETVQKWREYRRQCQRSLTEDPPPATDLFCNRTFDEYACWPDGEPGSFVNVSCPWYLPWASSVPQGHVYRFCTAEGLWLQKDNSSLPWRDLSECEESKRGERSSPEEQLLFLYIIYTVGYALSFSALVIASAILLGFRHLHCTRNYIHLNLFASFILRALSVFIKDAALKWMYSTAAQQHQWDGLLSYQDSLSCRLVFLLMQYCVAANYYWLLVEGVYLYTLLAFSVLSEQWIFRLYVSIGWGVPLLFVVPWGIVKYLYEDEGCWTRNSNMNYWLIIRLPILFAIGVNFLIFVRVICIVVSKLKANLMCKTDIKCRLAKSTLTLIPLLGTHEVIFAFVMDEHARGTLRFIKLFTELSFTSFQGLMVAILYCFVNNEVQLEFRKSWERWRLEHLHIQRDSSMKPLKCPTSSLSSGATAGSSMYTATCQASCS

Molecule | half-life ([1]; in vivo, 100 nmol/kg) [h] | EC50, p-ERK in HEK293 cells stably expressing human CCK-B R (human CCK-B receptor) [nM] | EC50, cAMP induction in HEK293 cells expressing human GLP-1 R (human GLP-1 receptor) [nM] | other results
CC[C@H](C)[C@H](NC(=O)[C@H](Cc1ccccc1)NC(=O)[C@H](CC(C)C)NC(=O)[C@H](CCCNC(=N)N)NC(=O)[C@@H](NC(=O)[C@H](C)NC(=O)[C@H](CCC(=O)O)NC(=O)[C@H](CCC(=O)O)NC(=O)[C@H](CCC(=O)O)NC(=O)[C@H](CC(C)C)NC(=O)[C@H](Cc1ccc(O)cc1)NC(=O)[C@H](CCCCN)NC(=O)[C@H](CO)NC(=O)[C@H](CC(C)C)NC(=O)[C@H](CCC(=O)O)NC(=O)[C@H](CO)NC(=O)[C@@H](NC(=O)[C@H](Cc1ccccc1)NC(=O)[C@@H](NC(=O)CNC(=O)[C@H](CCC(=O)O)NC(=O)CNC(=O)[C@@H](N)Cc1c[nH]cn1)[C@@H](C)O)[C@@H](C)O)C(C)C)C(=O)N[C@@H](CCC(=O)O)C(=O)N[C@@H](Cc1ccccc1)C(=O)N[C@@H](CC(C)C)C(=O)N[C@@H](CCCCN)C(=O)N[C@@H](CC(=O)O)C(=O)NCCOCCOCC(=O)NCCOCCOCC(=O)N[C@@H](Cc1ccc(O)cc1)C(=O)NCC(=O)N[C@@H](Cc1c[nH]c2ccccc12)C(=O)N[C@@H](CC(C)C)C(=O)N[C@@H](CC(=O)O)C(=O)N[C@@H](Cc1ccccc1)C(N)=O [Compound 19] | 2.4 |  |  | 
CC[C@H](C)[C@H](NC(=O)[C@H](Cc1ccccc1)NC(=O)[C@H](CC(C)C)NC(=O)[C@H](CCCNC(=N)N)NC(=O)[C@@H](NC(=O)[C@H](C)NC(=O)[C@H](CCC(=O)O)NC(=O)[C@H](CCC(=O)O)NC(=O)[C@H](CCC(=O)O)NC(=O)[C@H](CC(C)C)NC(=O)[C@H](Cc1ccc(O)cc1)NC(=O)[C@H](CCCCN)NC(=O)[C@H](CO)NC(=O)[C@H](CC(C)C)NC(=O)[C@H](CCC(=O)O)NC(=O)[C@H](CO)NC(=O)[C@@H](NC(=O)[C@H](Cc1ccccc1)NC(=O)[C@@H](NC(=O)CNC(=O)[C@H](CCC(=O)O)NC(=O)CNC(=O)[C@@H](N)Cc1c[nH]cn1)[C@@H](C)O)[C@@H](C)O)C(C)C)C(=O)N[C@@H](CCC(=O)O)C(=O)N[C@@H](Cc1c[nH]c2ccccc12)C(=O)N[C@@H](CC(C)C)C(=O)N[C@@H](CCCCN)C(=O)N[C@@H](CC(=O)O)C(=O)N[C@@H](Cc1ccc(O)cc1)C(=O)NCC(=O)N[C@@H](Cc1c[nH]c2ccccc12)C(=O)N[C@@H](CC(C)C)C(=O)N[C@@H](CC(=O)O)C(=O)N[C@@H](Cc1ccccc1)C(N)=O [Compound 23] | 6.7 |  |  | body weight gain (in words) (db/db mice; 3 week course of the study): lowered the body weight gain; Fasted BG level (mM) (db/db mice; SC 100 nmol/kg once daily, 16 days treatment): ++ ((++) indicates fasted BG between 6 and 8 mM); Delta-BW (g) (db/db mice; [2]): ++ ((++) indicates delta BW between 4 and 6 g); Delta-HbA1c (%) (db/db mice; [2]): +++ ((+++) indicates delta-HbA1c level below 0%); OGTT, AUC (mM*min) (db/db mice; SC 100 nmol/kg once daily, after 16 days of treatment): ++ ((++) indicates OGTT AUC between 1000 and 2000M*min); plasma levels of HbA1c (in words) (db/db mice; after 3 weeks treatment): lowered the plasma levels of HbA1c; fasting blood glucose levels (in words) (db/db mice; after 16 days treatment): lowered the fasting blood glucose levels; area under the glucose concentration curve (AUC) following an oral glucose challenge (in words) (db/db mice; day 16): lowered the area under the glucose concentration curve (AUC)
CCCCCCCCCCCCCCCC(=O)N[C@@H](CCC(=O)NCCCC[C@H](NC(=O)[C@H](CCC(=O)O)NC(=O)[C@@H](NC(=O)[C@H](Cc1ccccc1)NC(=O)[C@H](CC(C)C)NC(=O)[C@H](CCCNC(=N)N)NC(=O)[C@@H](NC(=O)[C@H](C)NC(=O)[C@H](CCC(=O)O)NC(=O)[C@H](CCC(=O)O)NC(=O)[C@H](CCC(=O)O)NC(=O)[C@H](CC(C)C)NC(=O)[C@H](Cc1ccc(O)cc1)NC(=O)[C@H](CCCCN)NC(=O)[C@H](CO)NC(=O)[C@H](CC(C)C)NC(=O)[C@H](CCC(=O)O)NC(=O)[C@H](CO)NC(=O)[C@@H](NC(=O)[C@H](Cc1ccccc1)NC(=O)[C@@H](NC(=O)CNC(=O)[C@H](CCC(=O)O)NC(=O)CNC(=O)[C@@H](N)Cc1c[nH]cn1)[C@@H](C)O)[C@@H](C)O)C(C)C)[C@@H](C)CC)C(=O)N[C@@H](CC(C)C)C(=O)N[C@@H](CCCCN)C(=O)NCCOCCOCC(=O)NCCOCCOCC(=O)N[C@@H](Cc1ccc(O)cc1)C(=O)NCC(=O)N[C@@H](Cc1c[nH]c2ccccc12)C(=O)N[C@@H](CC(C)C)C(=O)N[C@@H](CC(=O)O)C(=O)N[C@@H](Cc1ccccc1)C(N)=O)C(=O)O [Compound 7] |  |  |  | half-life ([1]; s.c. administration of 100 nmol/kg in mice, plasma, read-out: T1/2 (converted)): 6.2 h
CC[C@H](C)[C@H](NC(=O)[C@H](Cc1ccccc1)NC(=O)[C@H](CC(C)C)NC(=O)[C@H](CCCNC(=N)N)NC(=O)[C@@H](NC(=O)[C@H](C)NC(=O)[C@H](CCC(=O)O)NC(=O)[C@H](CCC(=O)O)NC(=O)[C@H](CCC(=O)O)NC(=O)[C@H](CC(C)C)NC(=O)[C@H](Cc1ccc(O)cc1)NC(=O)[C@H](CCCCN)NC(=O)[C@H](CO)NC(=O)[C@H](CC(C)C)NC(=O)[C@H](CCC(=O)O)NC(=O)[C@H](CO)NC(=O)[C@@H](NC(=O)[C@H](Cc1ccccc1)NC(=O)[C@@H](NC(=O)CNC(=O)[C@H](CCC(=O)O)NC(=O)CNC(=O)[C@@H](N)Cc1c[nH]cn1)[C@@H](C)O)[C@@H](C)O)C(C)C)C(=O)N[C@@H](CCC(=O)O)C(=O)N[C@@H](Cc1ccccc1)C(=O)N[C@@H](CC(C)C)C(=O)N[C@@H](CCCCN)C(=O)N[C@@H](CC(=O)O)C(=O)N[C@@H](Cc1ccc(O)cc1)C(=O)NCC(=O)N[C@@H](Cc1c[nH]c2ccccc12)C(=O)N[C@@H](CC(C)C)C(=O)N[C@@H](CC(=O)O)C(=O)N[C@@H](Cc1ccccc1)C(N)=O [Compound 12] | 5 |  |  | 
H-HGEGTFTSELSKYLEEEAVRLFIEWLKNYGWLDF-NH2 [Compound 22] |  |  |  | half-life ([1]; in vivo, s.c. administration of 100 nmol/kg in mice, plasma, read-out: T1/2 (converted)): 8.2 h
h[Leu15]Gastrin17 (from UniProt P01350 76-92) (peptide) |  | 2.89 |  | 
B1 |  | 133 | 0.37 | 
B2 |  | 61 | 0.037 | 
B3 |  | 31 | 0.085 | 
